Source: patent US5028625A, “Acid addition salt of ibuprofen and meglumine” (priority 1989, dated 1991)
Where a name gives a salt, the structure may show the parent alone.

Experiments:
[1] = Redissolution in water of evaporated salt residue, pH and taste; assay type: physicochemical
Description: The meglumine salt of ibuprofen was formed by dissolving 10 grams of Ibuprofen, USP, in 330 milliliters of Alcohol, USP to which was added 10 grams of Meglumine, USP. The ibuprofen-meglumine molar ratio was 1:1.0566.

[2] = in alcohol; cited from earlier work

Row | SMILES | ibuprofen concentration of clear solution as the meglumine salt ([1]; 740 milligrams of residue in 7.5 milliliters of water, 200 mg/5ml) | pH of salt solution ([1]; approximately 4% w/v ibuprofen in water) | meglumine alcohol solubility limit [2] [grams in 100 ml]
1 | CC(C)Cc1ccc(C(C)C(=O)O)cc1 (stereo not drawn) [meglumine ibuprofen salt] | approximately 4 % w/v | 8.35 | –
2 | CNC[C@H](O)[C@@H](O)[C@H](O)[C@H](O)CO [meglumine, Meglumine] | – | – | 1.2
